Laboratory results published in ChEMBL document CHEMBL5291721, “A preclinical secondary pharmacology resource illuminates target-adverse drug reaction associations of marketed drugs” (Nat Commun, 2023).

Legend:
Adenosine receptor A1 = target: T1, Adenosine receptor A1 (Homo sapiens, UniProt P30542)
T1 sequence (P30542 whole entry): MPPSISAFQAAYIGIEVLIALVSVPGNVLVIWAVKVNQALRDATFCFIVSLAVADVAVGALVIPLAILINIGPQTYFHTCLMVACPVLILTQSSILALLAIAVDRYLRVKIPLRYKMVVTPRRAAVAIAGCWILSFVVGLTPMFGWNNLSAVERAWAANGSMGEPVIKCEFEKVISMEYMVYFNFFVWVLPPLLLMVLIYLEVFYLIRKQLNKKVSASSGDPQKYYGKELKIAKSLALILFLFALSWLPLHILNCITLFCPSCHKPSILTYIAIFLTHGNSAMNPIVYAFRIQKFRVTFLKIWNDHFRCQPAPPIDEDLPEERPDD

D(1A) dopamine receptor = D(1A) dopamine receptor (Homo sapiens, UniProt P21728); type: functional, cell-based
[1] = target: T2, Gamma-aminobutyric acid receptor subunit alpha-1 (Rattus norvegicus, UniProt P62813); type: functional
Melanocortin receptor 3 = Melanocortin receptor 3 (Homo sapiens, UniProt P41968)
[2] = target: Sodium-dependent noradrenaline transporter (Homo sapiens, UniProt P23975)
[3] = target: Voltage-dependent L-type calcium channel subunit alpha-1C (Rattus norvegicus, UniProt P22002); type: functional
[4] = target: T3, Amine oxidase [flavin-containing] A (Homo sapiens, UniProt P21397); type: functional
T3 sequence (P21397 whole entry): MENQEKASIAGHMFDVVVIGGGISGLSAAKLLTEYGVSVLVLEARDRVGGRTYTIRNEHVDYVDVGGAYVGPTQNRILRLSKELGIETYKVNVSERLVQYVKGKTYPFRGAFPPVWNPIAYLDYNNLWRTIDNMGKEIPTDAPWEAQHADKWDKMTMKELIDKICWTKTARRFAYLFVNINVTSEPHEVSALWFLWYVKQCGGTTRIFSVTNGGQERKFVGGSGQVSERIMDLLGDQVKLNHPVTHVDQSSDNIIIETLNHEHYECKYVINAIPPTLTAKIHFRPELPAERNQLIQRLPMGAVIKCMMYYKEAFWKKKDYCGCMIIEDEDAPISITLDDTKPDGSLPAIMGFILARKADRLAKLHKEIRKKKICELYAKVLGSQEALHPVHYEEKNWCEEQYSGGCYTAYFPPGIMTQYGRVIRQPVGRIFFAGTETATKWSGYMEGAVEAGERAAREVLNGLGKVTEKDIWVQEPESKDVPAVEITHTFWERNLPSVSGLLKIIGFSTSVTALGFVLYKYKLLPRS

Histamine H3 receptor = Histamine H3 receptor (Homo sapiens, UniProt Q9Y5N1)
[5] = target: Glutamate receptor ionotropic, NMDA 1 (Rattus norvegicus, UniProt P35439)
[6] = target: T2, Gamma-aminobutyric acid receptor subunit alpha-1
[7] = target: T4, Muscarinic acetylcholine receptor M2 (Homo sapiens, UniProt P08172); type: functional, cell-based
T4 sequence (P08172 whole entry): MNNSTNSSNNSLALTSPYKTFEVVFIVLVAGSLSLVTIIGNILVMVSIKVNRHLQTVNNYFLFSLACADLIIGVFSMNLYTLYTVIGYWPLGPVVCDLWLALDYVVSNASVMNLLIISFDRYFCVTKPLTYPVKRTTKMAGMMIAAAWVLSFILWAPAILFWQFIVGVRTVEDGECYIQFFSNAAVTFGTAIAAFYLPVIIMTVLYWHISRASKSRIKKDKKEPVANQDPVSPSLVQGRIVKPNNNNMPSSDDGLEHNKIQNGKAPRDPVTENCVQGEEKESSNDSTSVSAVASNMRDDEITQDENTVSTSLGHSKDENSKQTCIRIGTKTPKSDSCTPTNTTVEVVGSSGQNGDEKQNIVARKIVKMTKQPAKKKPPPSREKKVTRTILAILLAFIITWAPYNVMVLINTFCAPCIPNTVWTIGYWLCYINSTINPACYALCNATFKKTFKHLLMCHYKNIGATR

Adenosine receptor A2a = Adenosine receptor A2a (Homo sapiens, UniProt P29274)
[8] = target: Delta-type opioid receptor (Homo sapiens, UniProt P41143)
[9] = target: T4, Muscarinic acetylcholine receptor M2; type: functional, cell-based; remark: listed apart in the source
[10] = target: Neuronal acetylcholine receptor subunit alpha-4 (Homo sapiens, UniProt P43681)
[11] = target: T5, Alpha-2B adrenergic receptor (Homo sapiens, UniProt P18089)
T5 sequence (P18089 whole entry): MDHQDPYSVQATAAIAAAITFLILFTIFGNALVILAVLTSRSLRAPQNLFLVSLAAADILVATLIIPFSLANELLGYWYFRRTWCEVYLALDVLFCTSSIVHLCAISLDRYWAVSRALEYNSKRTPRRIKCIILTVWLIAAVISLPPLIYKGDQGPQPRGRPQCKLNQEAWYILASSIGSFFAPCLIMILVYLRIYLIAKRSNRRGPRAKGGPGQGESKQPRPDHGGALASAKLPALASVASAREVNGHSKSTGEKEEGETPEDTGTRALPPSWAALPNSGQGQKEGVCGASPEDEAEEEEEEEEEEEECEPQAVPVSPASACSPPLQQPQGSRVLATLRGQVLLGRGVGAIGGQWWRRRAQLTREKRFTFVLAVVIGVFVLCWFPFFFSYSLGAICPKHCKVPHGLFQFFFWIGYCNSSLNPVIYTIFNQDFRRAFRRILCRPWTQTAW
Also: assay procedure not described here.

Sequence of D(1A) dopamine receptor (P21728 whole entry): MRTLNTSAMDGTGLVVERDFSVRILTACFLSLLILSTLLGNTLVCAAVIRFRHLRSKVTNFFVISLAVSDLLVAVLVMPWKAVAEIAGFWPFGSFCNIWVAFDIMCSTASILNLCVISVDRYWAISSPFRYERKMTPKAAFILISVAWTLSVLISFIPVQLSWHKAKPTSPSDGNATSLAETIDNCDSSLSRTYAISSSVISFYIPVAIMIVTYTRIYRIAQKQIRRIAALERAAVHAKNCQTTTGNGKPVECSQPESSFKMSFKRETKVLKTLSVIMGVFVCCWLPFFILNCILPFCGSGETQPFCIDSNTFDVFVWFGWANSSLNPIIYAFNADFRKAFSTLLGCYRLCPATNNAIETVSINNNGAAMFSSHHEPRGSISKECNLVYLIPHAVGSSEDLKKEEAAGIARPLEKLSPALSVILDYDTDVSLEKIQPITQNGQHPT
T2 sequence (P62813 whole entry): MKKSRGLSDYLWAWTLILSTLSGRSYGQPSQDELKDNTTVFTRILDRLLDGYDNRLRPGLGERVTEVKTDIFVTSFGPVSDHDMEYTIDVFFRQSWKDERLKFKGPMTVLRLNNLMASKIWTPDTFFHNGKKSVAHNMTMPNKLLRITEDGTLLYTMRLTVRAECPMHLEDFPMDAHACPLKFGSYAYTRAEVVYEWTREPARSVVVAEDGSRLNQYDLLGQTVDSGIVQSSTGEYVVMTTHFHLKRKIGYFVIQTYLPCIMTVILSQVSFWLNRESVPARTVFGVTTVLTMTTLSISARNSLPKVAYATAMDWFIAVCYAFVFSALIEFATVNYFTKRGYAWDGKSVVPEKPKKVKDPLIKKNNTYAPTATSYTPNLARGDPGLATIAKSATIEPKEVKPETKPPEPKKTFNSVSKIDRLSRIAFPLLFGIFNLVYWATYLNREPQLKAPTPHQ
Sequence of Delta-type opioid receptor (P41143 whole entry): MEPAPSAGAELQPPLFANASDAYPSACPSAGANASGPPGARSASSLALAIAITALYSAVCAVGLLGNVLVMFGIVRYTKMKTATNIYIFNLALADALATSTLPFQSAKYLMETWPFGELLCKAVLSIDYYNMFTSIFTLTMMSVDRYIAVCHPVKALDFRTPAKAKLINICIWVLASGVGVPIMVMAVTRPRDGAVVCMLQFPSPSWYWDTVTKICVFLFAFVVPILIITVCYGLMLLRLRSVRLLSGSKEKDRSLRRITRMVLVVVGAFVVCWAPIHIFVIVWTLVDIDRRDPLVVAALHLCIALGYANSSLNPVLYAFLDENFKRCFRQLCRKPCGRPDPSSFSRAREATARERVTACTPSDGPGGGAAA
Sequence of Adenosine receptor A2a (P29274 whole entry): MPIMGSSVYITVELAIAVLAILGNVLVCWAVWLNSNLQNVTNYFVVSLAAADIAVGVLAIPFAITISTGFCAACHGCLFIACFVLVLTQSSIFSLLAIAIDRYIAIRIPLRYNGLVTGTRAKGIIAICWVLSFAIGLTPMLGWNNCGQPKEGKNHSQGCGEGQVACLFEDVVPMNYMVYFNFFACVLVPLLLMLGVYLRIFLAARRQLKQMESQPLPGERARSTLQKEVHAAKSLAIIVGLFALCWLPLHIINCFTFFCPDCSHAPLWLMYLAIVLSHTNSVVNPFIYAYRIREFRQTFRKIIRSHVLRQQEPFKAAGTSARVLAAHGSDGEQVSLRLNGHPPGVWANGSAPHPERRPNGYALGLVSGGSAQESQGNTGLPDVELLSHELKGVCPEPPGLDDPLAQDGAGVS
Sequence of Sodium-dependent noradrenaline transporter (P23975 whole entry): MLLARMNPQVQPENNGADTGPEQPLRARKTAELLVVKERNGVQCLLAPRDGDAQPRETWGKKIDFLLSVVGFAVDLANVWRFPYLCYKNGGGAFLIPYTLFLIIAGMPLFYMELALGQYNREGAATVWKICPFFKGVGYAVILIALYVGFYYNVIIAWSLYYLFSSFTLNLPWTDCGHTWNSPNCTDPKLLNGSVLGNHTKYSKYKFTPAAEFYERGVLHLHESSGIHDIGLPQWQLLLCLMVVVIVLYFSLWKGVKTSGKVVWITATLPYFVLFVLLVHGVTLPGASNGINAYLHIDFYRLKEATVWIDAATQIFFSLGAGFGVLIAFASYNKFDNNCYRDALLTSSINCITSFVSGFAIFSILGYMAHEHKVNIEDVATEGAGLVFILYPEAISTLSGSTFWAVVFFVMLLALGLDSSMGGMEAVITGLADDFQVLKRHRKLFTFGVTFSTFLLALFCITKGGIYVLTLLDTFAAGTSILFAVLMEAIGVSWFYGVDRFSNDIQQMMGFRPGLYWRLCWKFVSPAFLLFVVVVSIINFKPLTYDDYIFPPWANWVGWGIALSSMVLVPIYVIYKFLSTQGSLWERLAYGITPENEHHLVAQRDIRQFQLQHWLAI
Sequence of Neuronal acetylcholine receptor subunit alpha-4 (P43681 whole entry): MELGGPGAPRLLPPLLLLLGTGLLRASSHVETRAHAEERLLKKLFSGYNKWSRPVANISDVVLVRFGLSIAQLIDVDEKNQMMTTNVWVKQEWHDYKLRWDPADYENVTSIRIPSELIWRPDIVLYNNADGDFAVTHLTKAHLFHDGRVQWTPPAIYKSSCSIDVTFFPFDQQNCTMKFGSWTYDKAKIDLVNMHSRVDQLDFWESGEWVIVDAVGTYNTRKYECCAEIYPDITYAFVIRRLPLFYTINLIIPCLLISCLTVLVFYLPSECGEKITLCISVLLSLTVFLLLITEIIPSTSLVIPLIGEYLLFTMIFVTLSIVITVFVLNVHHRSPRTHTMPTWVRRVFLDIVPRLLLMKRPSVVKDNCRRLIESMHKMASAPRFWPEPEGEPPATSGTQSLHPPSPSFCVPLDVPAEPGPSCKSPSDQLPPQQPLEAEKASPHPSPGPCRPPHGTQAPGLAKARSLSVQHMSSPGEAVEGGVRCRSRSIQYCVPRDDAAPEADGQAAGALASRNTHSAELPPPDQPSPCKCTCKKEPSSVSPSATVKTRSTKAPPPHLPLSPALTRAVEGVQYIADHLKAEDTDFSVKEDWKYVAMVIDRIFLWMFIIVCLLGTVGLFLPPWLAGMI
Sequence of Melanocortin receptor 3 (P41968 whole entry): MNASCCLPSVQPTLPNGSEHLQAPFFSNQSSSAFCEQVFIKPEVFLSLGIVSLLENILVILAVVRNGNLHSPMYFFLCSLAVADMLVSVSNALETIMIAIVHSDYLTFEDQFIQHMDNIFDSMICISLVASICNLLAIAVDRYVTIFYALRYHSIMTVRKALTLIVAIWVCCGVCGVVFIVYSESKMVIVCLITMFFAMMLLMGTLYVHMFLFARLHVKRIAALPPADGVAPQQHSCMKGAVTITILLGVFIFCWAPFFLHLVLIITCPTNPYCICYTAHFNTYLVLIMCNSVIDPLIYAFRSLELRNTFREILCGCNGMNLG
Sequence of Histamine H3 receptor (Q9Y5N1 whole entry): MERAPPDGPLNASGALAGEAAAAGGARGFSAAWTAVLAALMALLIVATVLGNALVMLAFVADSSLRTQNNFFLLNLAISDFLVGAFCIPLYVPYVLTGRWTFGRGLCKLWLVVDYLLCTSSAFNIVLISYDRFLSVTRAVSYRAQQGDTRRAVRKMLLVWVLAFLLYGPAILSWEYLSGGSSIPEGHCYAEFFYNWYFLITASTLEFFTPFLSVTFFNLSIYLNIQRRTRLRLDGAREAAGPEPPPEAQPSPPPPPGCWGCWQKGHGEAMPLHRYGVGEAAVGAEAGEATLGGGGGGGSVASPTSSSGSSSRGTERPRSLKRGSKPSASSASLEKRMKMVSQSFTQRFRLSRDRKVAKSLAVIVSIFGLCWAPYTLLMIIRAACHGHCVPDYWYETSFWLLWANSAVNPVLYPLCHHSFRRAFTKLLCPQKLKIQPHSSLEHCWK

SMILES: C[C@@H](O)[C@H]1C(=O)N2C(C(=O)O)=C(S[C@@H]3CN[C@H](C(=O)Nc4cccc(C(=O)O)c4)C3)[C@H](C)[C@H]12
- AC50 (Adenosine receptor A1): > 30 µM

SMILES: CC(=O)OC1CN2CCC1CC2 (centres undefined) [ACECLIDINE]
- AC50 (Adenosine receptor A1): > 30 µM

SMILES: CC1=C(/C=C/C(C)=C\C=C\C(C)=C\C(=O)O)C(C)(C)CCC1 [ALITRETINOIN]
- AC50 (Adenosine receptor A1): > 30 µM

SMILES: N=C(N)NC(=O)c1nc(Cl)c(N)nc1N [AMILORIDE]
- AC50 (D(1A) dopamine receptor): > 30 µM
- AC50 [1]: > 30 µM
- AC50 (Melanocortin receptor 3): > 30 µM
- AC50 [2]: > 30 µM
- AC50 (Adenosine receptor A1): > 30 µM
- AC50 [3]: > 30 µM
- AC50 [4]: 4.41 µM
- AC50 (Histamine H3 receptor): > 30 µM
- AC50 [5]: > 30 µM
- AC50 [6]: > 30 µM
- AC50 [7]: > 30 µM
- AC50 (Adenosine receptor A2a): > 30 µM
- AC50 [8]: > 30 µM
- AC50 [9]: > 30 µM
- AC50 [10]: > 30 µM

SMILES: CC(=O)Nc1ccc(/C=N/NC(N)=S)cc1 [AMITHIOZONE]
- AC50 (Adenosine receptor A1): > 30 µM

SMILES: CC1(C)S[C@@H]2[C@H](NC(=O)[C@H](NC(=O)c3cnc4cccnc4c3O)c3ccccc3)C(=O)N2[C@H]1C(=O)O [APALCILLIN]
- AC50 (Adenosine receptor A1): > 30 µM

SMILES: O=C(OOC(=O)c1ccccc1)c1ccccc1 [BENZOYL PEROXIDE]
- AC50 (Adenosine receptor A1): > 30 µM

SMILES: CC(C)(C)NCC(O)COc1ccccc1C#N (centres undefined) [BUNITROLOL]
- AC50 (D(1A) dopamine receptor): > 30 µM
- AC50 [1]: > 30 µM
- AC50 (Adenosine receptor A1): > 30 µM
- AC50 [11]: 26 µM
- AC50 [4]: 14 µM
- AC50 [5]: > 30 µM
- AC50 [6]: > 30 µM
- AC50 [7]: > 30 µM
- AC50 [8]: > 30 µM
- AC50 [9]: > 30 µM

SMILES: CC1(C)C[C@@H]1C(=O)N/C(=C\CCCCSC[C@H](N)C(=O)O)C(=O)O [CILASTATIN]
- AC50 (Adenosine receptor A1): > 30 µM

SMILES: COc1c(OCCCN2CCOCC2)ccc2c1N=C(NC(=O)c1cnc(N)nc1)N1CCN=C21 [COPANLISIB]
- AC50 (Adenosine receptor A1): > 30 µM

SMILES: CC1=C(/C=C/C(C)=C/C=C/C(C)=C\C(=O)O)C(C)(C)CCC1 [ISOTRETINOIN]
- AC50 (Adenosine receptor A1): > 30 µM

SMILES: CSCC[C@H](N)C(=O)O [METHIONINE]
- AC50 (Adenosine receptor A1): > 30 µM

SMILES: COCC(=O)O[C@]1(CCN(C)CCCc2nc3ccccc3[nH]2)CCc2cc(F)ccc2[C@@H]1C(C)C [MIBEFRADIL]
- AC50 (Adenosine receptor A1): > 30 µM

SMILES: COc1ccc(C(=O)c2ccccc2)c(O)c1 [OXYBENZONE]
- AC50 (D(1A) dopamine receptor): > 30 µM
- AC50 [1]: > 30 µM
- AC50 (Adenosine receptor A1): > 30 µM
- AC50 [11]: > 30 µM
- AC50 [4]: > 30 µM
- AC50 [5]: > 30 µM
- AC50 [6]: > 30 µM
- AC50 [7]: > 30 µM
- AC50 [8]: > 30 µM
- AC50 [9]: > 30 µM

SMILES: O=C1Nc2ccccc2C1(c1ccc(O)cc1)c1ccc(O)cc1 [OXYPHENISATINE]
- AC50 (Adenosine receptor A1): > 30 µM

SMILES: OC(CN1CCCCC1)c1cc(-c2ccccc2)on1 (centres undefined) [PERISOXAL]
- AC50 (Adenosine receptor A1): > 30 µM

SMILES: CC(=O)O[C@]1(C(C)=O)CC[C@H]2[C@@H]3CCC4=CC(=O)CCC4=C3[C@@H](c3ccc(N(C)C)cc3)C[C@@]21C [ULIPRISTAL ACETATE]
- AC50 (Adenosine receptor A1): > 30 µM
